In ChEMBL document CHEMBL4004803, “Syntheses and antibacterial activity of soluble 9-bromo substituted indolizinoquinoline-5,12-dione derivatives” (Eur J Med Chem, 2017):
Converted amounts (≈) assume the structure as drawn.

Tests used:
Type in all cases: functional
Staphylococcus aureus [1] = assay: Antibacterial activity against methicillin-resistant Staphylococcus aureus 531220 clinical isolate after 20 to 24 hrs by two-fold microdilution method
Staphylococcus aureus [2] = assay: Antibacterial activity against methicillin-resistant Staphylococcus aureus 1029025 clinical isolate after 20 to 24 hrs by two-fold microdilution method
Staphylococcus aureus [3] = assay: Antibacterial activity against methicillin-resistant Staphylococcus aureus 523005 clinical isolate after 20 to 24 hrs by two-fold microdilution method
Staphylococcus aureus [4] = assay: Antibacterial activity against methicillin-resistant Staphylococcus aureus 110325 clinical isolate after 20 to 24 hrs by two-fold microdilution method
Staphylococcus aureus [5] = assay: Antibacterial activity against methicillin-resistant Staphylococcus aureus 1215028 clinical isolate after 20 to 24 hrs by two-fold microdilution method
Staphylococcus aureus [6] = assay: Antibacterial activity against methicillin-resistant Staphylococcus aureus 1214023 clinical isolate after 20 to 24 hrs by two-fold microdilution method
Streptococcus pneumoniae = assay: Antibacterial activity against Streptococcus pneumoniae ATCC 6305 after 20 to 24 hrs by two-fold microdilution method
Staphylococcus aureus [7] = assay: Antibacterial activity against methicillin-resistant Staphylococcus aureus 219236 clinical isolate after 20 to 24 hrs by two-fold microdilution method
Staphylococcus aureus [8] = assay: Antibacterial activity against methicillin-resistant Staphylococcus aureus 110910-2 clinical isolate after 20 to 24 hrs by two-fold microdilution method
Staphylococcus aureus [9] = assay: Antibacterial activity against methicillin-resistant Staphylococcus aureus 20339 clinical isolate after 20 to 24 hrs by two-fold microdilution method
Staphylococcus aureus [10] = assay: Antibacterial activity against methicillin-resistant Staphylococcus aureus 221022 clinical isolate after 20 to 24 hrs by two-fold microdilution method
Streptococcus pyogenes = assay: Antibacterial activity against Streptococcus pyogenes ATCC 19615 after 20 to 24 hrs by two-fold microdilution method
Staphylococcus aureus [11] = assay: Antibacterial activity against methicillin-resistant Staphylococcus aureus 224001 clinical isolate after 20 to 24 hrs by two-fold microdilution method
Staphylococcus aureus [12] = assay: Antibacterial activity against methicillin-resistant Staphylococcus aureus GLH14 clinical isolate after 20 to 24 hrs by two-fold microdilution method
Staphylococcus aureus [13] = assay: Antibacterial activity against methicillin-resistant Staphylococcus aureus 12308 clinical isolate after 20 to 24 hrs by two-fold microdilution method
Staphylococcus aureus [14] = assay: Antibacterial activity against methicillin-resistant Staphylococcus aureus 316031 clinical isolate after 20 to 24 hrs by two-fold microdilution method
Staphylococcus aureus [15] = assay: Antibacterial activity against methicillin-resistant Staphylococcus aureus 908046 clinical isolate after 20 to 24 hrs by two-fold microdilution method
Staphylococcus aureus [16] = assay: Antibacterial activity against methicillin-resistant Staphylococcus aureus 20106-2 clinical isolate after 20 to 24 hrs by two-fold microdilution method
Staphylococcus aureus [17] = assay: Antibacterial activity against methicillin-resistant Staphylococcus aureus 118038 clinical isolate after 20 to 24 hrs by two-fold microdilution method
Staphylococcus aureus [18] = assay: Antibacterial activity against methicillin-resistant Staphylococcus aureus 919205 clinical isolate after 20 to 24 hrs by two-fold microdilution method
Staphylococcus aureus [19] = assay: Antibacterial activity against methicillin-resistant Staphylococcus aureus 110834 clinical isolate after 20 to 24 hrs by two-fold microdilution method
Staphylococcus aureus [20] = assay: Antibacterial activity against methicillin-resistant Staphylococcus aureus 3250299 clinical isolate after 20 to 24 hrs by two-fold microdilution method
Escherichia coli = assay: Antibacterial activity against Escherichia coli ATCC 25922 after 20 to 24 hrs by two-fold microdilution method
Staphylococcus aureus [21] = assay: Antibacterial activity against methicillin-resistant Staphylococcus aureus 214026 clinical isolate after 20 to 24 hrs by two-fold microdilution method
Staphylococcus aureus [22] = assay: Antibacterial activity against methicillin-resistant Staphylococcus aureus 1012029 clinical isolate after 20 to 24 hrs by two-fold microdilution method
Staphylococcus aureus [23] = assay: Antibacterial activity against methicillin-resistant Staphylococcus aureus 112047 clinical isolate after 20 to 24 hrs by two-fold microdilution method
Staphylococcus aureus [24] = assay: Antibacterial activity against methicillin-resistant Staphylococcus aureus 1128040 clinical isolate after 20 to 24 hrs by two-fold microdilution method
Staphylococcus aureus [25] = assay: Antibacterial activity against methicillin-resistant Staphylococcus aureus 829034 clinical isolate after 20 to 24 hrs by two-fold microdilution method
Staphylococcus aureus [26] = assay: Antibacterial activity against methicillin-resistant Staphylococcus aureus 502025 clinical isolate after 20 to 24 hrs by two-fold microdilution method
Staphylococcus aureus [27] = assay: Antibacterial activity against methicillin-resistant Staphylococcus aureus 212014 clinical isolate after 20 to 24 hrs by two-fold microdilution method
Staphylococcus aureus [28] = assay: Antibacterial activity against methicillin-resistant Staphylococcus aureus ATCC 43300 after 20 to 24 hrs by two-fold microdilution method
Staphylococcus aureus [29] = assay: Antibacterial activity against methicillin-resistant Staphylococcus aureus 1101016 clinical isolate after 20 to 24 hrs by two-fold microdilution method
Staphylococcus aureus [30] = assay: Antibacterial activity against methicillin-resistant Staphylococcus aureus 122820-2 clinical isolate after 20 to 24 hrs by two-fold microdilution method
[31] = test system: Staphylococcus epidermidis; assay: Antibacterial activity against Staphylococcus epidermidis ATCC 12228 after 20 to 24 hrs by two-fold microdilution method
Staphylococcus aureus [32] = assay: Antibacterial activity against methicillin-resistant Staphylococcus aureus 1024004-2 clinical isolate after 20 to 24 hrs by two-fold microdilution method
Staphylococcus aureus [33] = assay: Antibacterial activity against methicillin-resistant Staphylococcus aureus 414244 clinical isolate after 20 to 24 hrs by two-fold microdilution method
Staphylococcus aureus [34] = assay: Antibacterial activity against methicillin-resistant Staphylococcus aureus clinical isolate after 20 to 24 hrs by two-fold microdilution method
Staphylococcus aureus [35] = assay: Antibacterial activity against methicillin-resistant Staphylococcus aureus 1023043 clinical isolate after 20 to 24 hrs by two-fold microdilution method
Staphylococcus aureus [36] = assay: Antibacterial activity against methicillin-resistant Staphylococcus aureus 1113041 clinical isolate after 20 to 24 hrs by two-fold microdilution method
Staphylococcus aureus [37] = assay: Antibacterial activity against methicillin-resistant Staphylococcus aureus 19950 clinical isolate after 20 to 24 hrs by two-fold microdilution method
Staphylococcus aureus [38] = assay: Antibacterial activity against methicillin-resistant Staphylococcus aureus 112430 clinical isolate after 20 to 24 hrs by two-fold microdilution method
Staphylococcus aureus [39] = assay: Antibacterial activity against methicillin-resistant Staphylococcus aureus 131215 clinical isolate after 20 to 24 hrs by two-fold microdilution method
Staphylococcus aureus [40] = assay: Antibacterial activity against methicillin-resistant Staphylococcus aureus 110414 clinical isolate after 20 to 24 hrs by two-fold microdilution method
Staphylococcus aureus [41] = assay: Antibacterial activity against methicillin-resistant Staphylococcus aureus 531026 clinical isolate after 20 to 24 hrs by two-fold microdilution method
Staphylococcus aureus [42] = assay: Antibacterial activity against methicillin-resistant Staphylococcus aureus 305026 clinical isolate after 20 to 24 hrs by two-fold microdilution method
Staphylococcus aureus [43] = assay: Antibacterial activity against methicillin-resistant Staphylococcus aureus 519030 clinical isolate after 20 to 24 hrs by two-fold microdilution method
Staphylococcus aureus [44] = assay: Antibacterial activity against methicillin-resistant Staphylococcus aureus 109016 clinical isolate after 20 to 24 hrs by two-fold microdilution method

Compound: CN1CCN(CCCCCCOC(=O)c2c3c(n4cc(Br)ccc24)C(=O)c2ncccc2C3=O)CC1
- MIC (Staphylococcus aureus [1]): ≤ 0.0078 mg/L
- MIC (Staphylococcus aureus [2]): 0.063 mg/L (≈ 0.114 µM)
- MIC (Staphylococcus aureus [3]): 0.25 mg/L (≈ 0.452 µM)
- MIC (Staphylococcus aureus [4]): ≤ 0.0078 mg/L
- MIC (Staphylococcus aureus [5]): 0.063 mg/L (≈ 0.114 µM)
- MIC (Staphylococcus aureus [6]): 0.063 mg/L (≈ 0.114 µM)
- MIC (Streptococcus pneumoniae): 0.5 mg/L (≈ 0.903 µM)
- MIC (Staphylococcus aureus [7]): 0.063 mg/L (≈ 0.114 µM)
- MIC (Staphylococcus aureus [8]): 0.125 mg/L (≈ 0.226 µM)
- MIC (Staphylococcus aureus [9]): 0.5 mg/L (≈ 0.903 µM)
- MIC (Staphylococcus aureus [10]): 0.125 mg/L (≈ 0.226 µM)
- MIC (Streptococcus pyogenes): 2 mg/L (≈ 3.61 µM)
- MIC (Staphylococcus aureus [11]): 0.5 mg/L (≈ 0.903 µM)
- MIC (Staphylococcus aureus [12]): 0.063 mg/L (≈ 0.114 µM)
- MIC (Staphylococcus aureus [13]): 0.063 mg/L (≈ 0.114 µM)
- MIC (Staphylococcus aureus [14]): 0.25 mg/L (≈ 0.452 µM)
- MIC (Staphylococcus aureus [15]): 0.063 mg/L (≈ 0.114 µM)
- MIC (Staphylococcus aureus [16]): 0.25 mg/L (≈ 0.452 µM)
- MIC (Staphylococcus aureus [17]): 0.25 mg/L (≈ 0.452 µM)
- MIC (Staphylococcus aureus [18]): 0.125 mg/L (≈ 0.226 µM)
- MIC (Staphylococcus aureus [19]): 0.125 mg/L (≈ 0.226 µM)
- MIC (Staphylococcus aureus [20]): 0.063 mg/L (≈ 0.114 µM)
- MIC (Escherichia coli): 4 mg/L (≈ 7.23 µM)
- MIC (Staphylococcus aureus [21]): 0.031 mg/L (≈ 0.056 µM)
- MIC (Staphylococcus aureus [22]): 0.016 mg/L (≈ 0.0289 µM)
- MIC (Staphylococcus aureus [23]): 0.25 mg/L (≈ 0.452 µM)
- MIC (Staphylococcus aureus [24]): 0.063 mg/L (≈ 0.114 µM)
- MIC (Staphylococcus aureus [25]): 0.5 mg/L (≈ 0.903 µM)
- MIC (Staphylococcus aureus [26]): 0.25 mg/L (≈ 0.452 µM)
- MIC (Staphylococcus aureus [27]): 0.25 mg/L (≈ 0.452 µM)
- MIC (Staphylococcus aureus [28]): ≤ 0.0078 mg/L
- MIC (Staphylococcus aureus [29]): 0.25 mg/L (≈ 0.452 µM)
- MIC (Staphylococcus aureus [30]): 0.063 mg/L (≈ 0.114 µM)
- MIC [31]: ≤ 0.0078 mg/L
- MIC (Staphylococcus aureus [32]): 0.25 mg/L (≈ 0.452 µM)
- MIC (Staphylococcus aureus [33]): 0.063 mg/L (≈ 0.114 µM)
- MIC50 (Staphylococcus aureus [34]): 0.125 mg/L (≈ 0.226 µM)
- MIC90 (Staphylococcus aureus [34]): 0.5 mg/L (≈ 0.903 µM)
- MIC (Staphylococcus aureus [35]): 0.125 mg/L (≈ 0.226 µM)
- MIC (Staphylococcus aureus [36]): 0.125 mg/L (≈ 0.226 µM)
- MIC (Staphylococcus aureus [37]): 0.25 mg/L (≈ 0.452 µM)
- MIC (Staphylococcus aureus [38]): 0.125 mg/L (≈ 0.226 µM)
- MIC (Staphylococcus aureus [39]): 0.063 mg/L (≈ 0.114 µM)
- MIC (Staphylococcus aureus [40]): 0.125 mg/L (≈ 0.226 µM)
- MIC (Staphylococcus aureus [41]): 1 mg/L (≈ 1.81 µM)
- MIC (Staphylococcus aureus [42]): 0.25 mg/L (≈ 0.452 µM)
- MIC (Staphylococcus aureus [43]): 0.5 mg/L (≈ 0.903 µM)
- MIC (Staphylococcus aureus [44]): 0.031 mg/L (≈ 0.056 µM)
